Reference: patent US7135457B1, “Random peptides that bind to gastro-intestinal tract (GIT) transport receptors and related methods” (Cytogen Corporation, priority 1997, dated 2006)
Peptide text beside a SMILES is read from it. * marks the point of attachment. Dansyl = CN(C)c1cccc2c(S(=O)(=O)*)cccc12

System: P100 membrane fractions derived from Caco-2 cells
Assay: Dansylated peptide ELISA on P100: PAX2 and HAX42 peptides relative binding
Protocol: The peptides and proteins were analyzed by a dansylated peptide ELISA method in which 96 well plates were coated overnight at 4° C. with 100 μl/well coating protein (normally 100 μg/ml P100 membrane fraction) in 0.05M carbonate buffer pH9.6. Nonspecific binding was blocked using 200 μl/well, 2% Marvel/PBS for 2 hours at 37° C. prior to incubation with dansylated peptides. The plates were washed three times with PBS/0.05% Tween 20 and after each subsequent incubation step. […] A buffer blank control was included to ensure that background binding to plastic was not due to the antibodies used in the assay system. […] The plates were then incubated with an anti-mouse λ-HRP conjugated antibody (Southern Biotech 1060-05) at a 1:10,000 dilution in blocking solution, 100 μl/well for 1 hour at room temperature. Plates were developed using 75 μl/well Bionostics TMB substrate and incubated for approximately 10 minutes. The developing reaction was stopped using Bionostics Red Stop solution (25 μl/well), and the optical density of the plates was read at 650 nm.

[1] = PAX2 peptides, ratio to ZElan021 (HAX42 = 1.00), first 50 μg/ml column
[2] = PAX2 peptides, ratio to ZElan021 (HAX42 = 1.00), first 20 μg/ml column
[3] = PAX2 peptides, ratio to ZElan021 (HAX42 = 1.00), second 50 μg/ml column
[4] = PAX2 peptides, ratio to ZElan021 (HAX42 = 1.00), second 20 μg/ml column
[5] = HAX42 peptides, ratio to ZElan021 (arbitrary 1.00)
[6] = HAX42 peptides, ratio to ZElan021 (arbitrary 1.00), first 50 μg/ml column
[7] = HAX42 peptides, ratio to ZElan021 (arbitrary 1.00), second 50 μg/ml column

| Compound | Binding value at 50 μg/ml [1] | Binding value at 20 μg/ml [2] | Binding value at 50 μg/ml [3] | Binding value at 20 μg/ml [4] | Binding value at 20 μg/ml [5] | Binding value at 50 μg/ml [6] | Binding value at 50 μg/ml [7] |
| --- | --- | --- | --- | --- | --- | --- | --- |
| CC(C)C[C@H](NC(=O)[C@H](CCCNC(=N)N)NC(=O)[C@H](CCCNC(=N)N)NC(=O)[C@H](CC(N)=O)NC(=O)[C@H](Cc1c[nH]cn1)NC(=O)[C@H](CO)NC(=O)[C@H](CO)NC(=O)[C@H](Cc1c[nH]cn1)NC(=O)[C@H](CCCCN)NC(=O)[C@H](C)NC(=O)[C@H](CC(N)=O)NC(=O)[C@@H](NC(=O)[C@@H](N)CCCCNS(=O)(=O)c1cccc2c(N(C)C)cccc12)[C@@H](C)O)C(=O)N[C@@H](CCCNC(=N)N)C(=O)N[C@H](C(=O)N[C@@H](CCCNC(=N)N)C(=O)N[C@@H](CO)C(=O)N[C@@H](CCCNC(=N)N)C(=O)N1CCC[C@H]1C(=O)N[C@@H](CC(N)=O)C(N)=O)[C@@H](C)O [ZElan032] (H-K(Dansyl)TNAKHSSHNRRLRTRSRPN-NH2) | 0.95 | – | – | – | – | – | – |
| CC(C)C[C@H](NC(=O)[C@H](CCCNC(=N)N)NC(=O)[C@H](CCCNC(=N)N)NC(=O)[C@H](CC(N)=O)NC(=O)[C@H](Cc1c[nH]cn1)NC(=O)[C@H](CO)NC(=O)[C@H](CO)NC(=O)[C@H](Cc1c[nH]cn1)NC(=O)[C@H](CCCCN)NC(=O)[C@H](C)NC(=O)[C@H](CC(N)=O)NC(=O)[C@@H](NC(=O)[C@@H](N)CCCCNS(=O)(=O)c1cccc2c(N(C)C)cccc12)[C@@H](C)O)C(=O)N[C@@H](CCCNC(=N)N)C(=O)N[C@H](C(=O)N[C@@H](CCCNC(=N)N)C(N)=O)[C@@H](C)O [ZElan033] (H-K(Dansyl)TNAKHSSHNRRLRTR-NH2) | 0.80 | 0.35 | 0.66 | – | – | – | – |
| CC(C)C[C@H](NC(=O)[C@H](CCCNC(=N)N)NC(=O)[C@H](CCCNC(=N)N)NC(=O)[C@H](CC(N)=O)NC(=O)[C@H](Cc1c[nH]cn1)NC(=O)[C@H](CO)NC(=O)[C@H](CO)NC(=O)[C@@H](N)CCCCNS(=O)(=O)c1cccc2c(N(C)C)cccc12)C(=O)N[C@@H](CCCNC(=N)N)C(=O)N[C@H](C(=O)N[C@@H](CCCNC(=N)N)C(N)=O)[C@@H](C)O [ZElan035] (H-K(Dansyl)SSHNRRLRTR-NH2) | 0.81 | 0.12 | 0.77 | 0.43 | – | – | – |
| C[C@H](NC(=O)[C@H](CC(N)=O)NC(=O)[C@@H](NC(=O)[C@@H](N)CCCCNS(=O)(=O)c1cccc2c(N(C)C)cccc12)[C@@H](C)O)C(=O)N[C@@H](CCCCN)C(=O)N[C@@H](Cc1c[nH]cn1)C(=O)N[C@@H](CO)C(=O)N[C@@H](CO)C(=O)N[C@@H](Cc1c[nH]cn1)C(=O)N[C@@H](CC(N)=O)C(N)=O [ZElan055] (H-K(Dansyl)TNAKHSSHN-NH2) | 1.10 | 0.99 | 0.59 | 0.73 | – | – | – |
| CC(C)C[C@H](NC(=O)[C@H](CCCNC(=N)N)NC(=O)[C@H](CCCNC(=N)N)NC(=O)[C@@H](N)CCCCNS(=O)(=O)c1cccc2c(N(C)C)cccc12)C(=O)N[C@@H](CCCNC(=N)N)C(=O)N[C@H](C(=O)N[C@@H](CCCNC(=N)N)C(=O)N[C@@H](CO)C(=O)N[C@@H](CCCNC(=N)N)C(=O)N1CCC[C@H]1C(=O)N[C@@H](CC(N)=O)C(N)=O)[C@@H](C)O [ZElan056] (H-K(Dansyl)RRLRTRSRPN-NH2) | 0.21 | 0.00 | 0.21 | 0.16 | – | – | – |
| CC(C)C[C@H](NC(=O)[C@H](CCCNC(=N)N)NC(=O)[C@H](CCCNC(=N)N)NC(=O)[C@@H](N)CCCCNS(=O)(=O)c1cccc2c(N(C)C)cccc12)C(=O)N[C@@H](CCCNC(=N)N)C(=O)N[C@H](C(=O)N[C@@H](CCCNC(=N)N)C(=O)N[C@@H](CO)C(=O)N[C@@H](CCCNC(=N)N)C(N)=O)[C@@H](C)O [ZElan057] (H-K(Dansyl)RRLRTRSR-NH2) | 0.56 | 0.08 | 0.25 | – | – | – | – |
| CC(C)C[C@H](NC(=O)[C@H](CCCNC(=N)N)NC(=O)[C@H](CCCNC(=N)N)NC(=O)[C@@H](N)CCCCNS(=O)(=O)c1cccc2c(N(C)C)cccc12)C(=O)N[C@@H](CCCNC(=N)N)C(=O)N[C@H](C(=O)N[C@@H](CCCNC(=N)N)C(N)=O)[C@@H](C)O [ZElan058, H2N-K(dns)RRLRTR-CONH2] (H-K(Dansyl)RRLRTR-NH2) | 0.47 | 0.05 | 0.16 | – | – | – | – |
| CC(C)C[C@H](NC(=O)[C@H](C)NC(=O)[C@H](Cc1c[nH]cn1)NC(=O)[C@H](CC(=O)O)NC(=O)[C@H](CO)NC(=O)[C@@H](N)CCCCNS(=O)(=O)c1cccc2c(N(C)C)cccc12)C(=O)NCC(=O)N[C@H](C(=O)N[C@@H](CC(N)=O)C(=O)N[C@@H](CC(C)C)C(=O)N[C@@H](CCCNC(=N)N)C(=O)N[C@@H](CO)C(=O)N[C@@H](CC(=O)O)C(=O)N[C@@H](CC(N)=O)C(=O)N[C@@H](C)C(=O)N[C@@H](CCCCN)C(=O)N[C@@H](CCC(=O)O)C(=O)N1CCC[C@H]1C(=O)NCC(=O)N[C@@H](CC(=O)O)C(=O)N[C@@H](Cc1ccc(O)cc1)C(=O)N[C@@H](CC(N)=O)C(=O)N[C@@H](CS)C(=O)N[C@@H](CS)C(=O)NCC(=O)N[C@@H](CC(N)=O)C(=O)NCC(N)=O)[C@@H](C)O [ZElan060] (H-K(Dansyl)SDHALGTNLRSDNAKEPGDYNCCGNG-NH2) | – | – | – | – | 0.44 | 0.56 | 0.43 |
| CC[C@H](C)[C@H](NC(=O)[C@H](C)NC(=O)[C@H](CO)NC(=O)[C@@H]1CCCN1C(=O)[C@H](CCCNC(=N)N)NC(=O)[C@H](CCCNC(=N)N)NC(=O)[C@H](CCCNC(=N)N)NC(=O)[C@H](CC(N)=O)NC(=O)[C@H](Cc1ccccc1)NC(=O)[C@@H](NC(=O)[C@H](CCCCN)NC(=O)[C@H](CCCNC(=N)N)NC(=O)CNC(=O)[C@@H](NC(=O)[C@H](CO)NC(=O)[C@H](CC(N)=O)NC(=O)CNC(=O)[C@H](CC(N)=O)NC(=O)CNC(=O)[C@H](CS)NC(=O)[C@H](CS)NC(=O)[C@H](CC(N)=O)NC(=O)[C@H](Cc1ccc(O)cc1)NC(=O)[C@H](CC(=O)O)NC(=O)CNC(=O)[C@@H](N)CCCCNS(=O)(=O)c1cccc2c(N(C)C)cccc12)[C@@H](C)O)C(C)C)C(=O)N1CCC[C@H]1C(=O)N[C@H](C(N)=O)[C@@H](C)O [ZElan061] (H-K(Dansyl)GDYNCCGNGNSTGRKVFNRRRPSAIPT-NH2) | – | – | – | – | 0.20 | 0.60 | 0.38 |
| CC(C)C[C@H](NC(=O)[C@H](C)NC(=O)[C@H](Cc1c[nH]cn1)NC(=O)[C@H](CC(=O)O)NC(=O)[C@H](CO)NC(=O)[C@@H](N)CCCCNS(=O)(=O)c1cccc2c(N(C)C)cccc12)C(=O)NCC(=O)N[C@H](C(=O)N[C@@H](CC(N)=O)C(=O)N[C@@H](CC(C)C)C(=O)N[C@@H](CCCNC(=N)N)C(=O)N[C@@H](CO)C(=O)N[C@@H](CC(=O)O)C(=O)N[C@@H](CC(N)=O)C(=O)N[C@@H](C)C(=O)N[C@@H](CCCCN)C(=O)N[C@@H](CCC(=O)O)C(=O)N1CCC[C@H]1C(=O)NCC(N)=O)[C@@H](C)O [ZElan062] (H-K(Dansyl)SDHALGTNLRSDNAKEPG-NH2) | – | – | – | – | 0.11 | 0.42 | 0.34 |
| CC(C)[C@H](NC(=O)[C@H](CCCCN)NC(=O)[C@H](CCCNC(=N)N)NC(=O)[C@@H](N)CCCCNS(=O)(=O)c1cccc2c(N(C)C)cccc12)C(=O)N[C@@H](Cc1ccccc1)C(=O)N[C@@H](CC(N)=O)C(=O)N[C@@H](CCCNC(=N)N)C(=O)N[C@@H](CCCNC(=N)N)C(=O)N[C@@H](CCCNC(=N)N)C(=O)N1CCC[C@H]1C(=O)N[C@@H](CO)C(N)=O [ZElan065] (H-K(Dansyl)RKVFNRRRPS-NH2) | – | – | – | – | 0.00 | 0.54 | 0.30 |
| CN(C)c1cccc2c(S(=O)(=O)NCCCC[C@H](N)C(=O)N[C@@H](CC(N)=O)C(=O)N[C@@H](CCCNC(=N)N)C(=O)N[C@@H](CCCNC(=N)N)C(=O)N[C@@H](CCCNC(=N)N)C(=O)N3CCC[C@H]3C(=O)N[C@@H](CO)C(N)=O)cccc12 [ZElan067, H2N-K(dns)NRRRPS-CONH2] (H-K(Dansyl)NRRRPS-NH2) | – | – | – | – | 0.08 | 0.52 | 0.40 |
| CC(C)C[C@H](NC(=O)[C@H](C)NC(=O)[C@H](Cc1c[nH]cn1)NC(=O)[C@H](CC(=O)O)NC(=O)[C@H](CO)NC(=O)[C@@H](N)CCCCNS(=O)(=O)c1cccc2c(N(C)C)cccc12)C(=O)NCC(=O)N[C@H](C(=O)N[C@@H](CC(N)=O)C(=O)N[C@@H](CC(C)C)C(=O)N[C@@H](CCCNC(=N)N)C(=O)N[C@@H](CO)C(=O)N[C@@H](CC(=O)O)C(=O)N[C@@H](CC(N)=O)C(=O)N[C@@H](C)C(=O)N[C@@H](CCCCN)C(=O)N[C@@H](CCC(=O)O)C(=O)N1CCC[C@H]1C(=O)NCC(=O)N[C@@H](CC(=O)O)C(=O)N[C@@H](Cc1ccc(O)cc1)C(=O)N[C@@H](CC(N)=O)C(=O)N[C@@H](CS)C(=O)N[C@@H](CS)C(=O)NCC(=O)N[C@@H](CC(N)=O)C(=O)NCC(=O)N[C@@H](CC(N)=O)C(=O)N[C@@H](CO)C(=O)N[C@H](C(N)=O)[C@@H](C)O)[C@@H](C)O [ZElan070] (H-K(Dansyl)SDHALGTNLRSDNAKEPGDYNCCGNGNST-NH2) | – | – | – | – | 0.59 | 0.97 | 0.39 |
